Reference: patent US20160194358A1, “LINEAR PEPTIDE ANTIBIOTCS” (priority 2013, published 2016)
≈ marks a conversion by molar mass, not a printed value. Where two headings read alike, the source gives them in different places. Where a SMILES comes first, the peptide text is derived from it. [ ]: non-standard residue; d: D form. The star is where a group is joined. boroAla((+)-pinanediol) = C[C@H](N*)B1O[C@@H]2C[C@@H]3C[C@@H](C3(C)C)[C@]2(C)O1; Benzoyl(4-(4-Cl-Ph)) = O=C(c1ccc(-c2ccc(Cl)cc2)cc1)*; Ethanesulfonyl(2-NHDecyl) = CCCCCCCCCCNCCS(=O)(=O)*; Propanoyl(3-decylamino) = CCCCCCCCCCNCCC(=O)*; X18 = CCCCc1ccc(-c2ccc(S(=O)(=O)*)cn2)cc1; X34 = CCCCc1ccc(-c2ccc(S(=O)(=O)*)cc2)cc1; X21 = O=S(=O)(c1ccc(-c2ccc(Cl)cc2)nc1)*; AlaCOCOOMe = COC(=O)C(=O)[C@H](C)N*; X31 = O=S(=O)(c1ccc(-c2ccccc2)cn1)*; X29 = CCCCCCCCCCN(C)CCS(=O)(=O)*; X19 = CCCCCCCCCCN(C)CCC(=O)*; X22 = C[C@H](N*)C(=O)C(=O)O; boroAla = C[C@H](N*)B(O)O; Dab = NCC[C@H](N)C(=O)O; Dap = NC[C@H](N)C(=O)O

Tests used:
[1] = system: Escherichia coli strain MC4100 IMP-4213, which harbors an LptD mutation; details: E. coli MC4100 IMP-4213; 35° C., 22 hours
Experimental: (§1) In vitro antimicrobial activity of each compound was determined by measuring minimal inhibitor concentrations (MICs) using the broth micro-dilution technique as approved by the Clinical and Laboratory Standards Institute (CLSI). Antibacterial activity was measure against two strains of bacteria: 1) methicillin resistant Staphylococcus aureus (MRSA) strain USA300 (NRS384) and 2) Escherichia coli strain MC4100 IMP-4213, which harbors an LptD mutation. Bacterial inocula were prepared by scraping cells into 1 mL of testing media (cation adjusted Mueller Hinton Broth supplemented with 0.002% v/v Tween-80) and diluting to a final OD600nm of 0.01.
(§2) Test compounds were prepared in DMSO at a concentration of 10 mg/ml. These compound stocks were diluted into testing media at a concentration of 64 μg/ml and 9 serial 1:2 dilutions were made in the same media, in 96-well U bottom microtiter dishes. Bacterial inocula were added to the two fold serial dilutions of test compounds to a final density of OD OD600nm of 0.0005 and incubated stationarily at 35° C. for 22 hours, after which the plates were examined visually.

[2] = system: methicillin resistant Staphylococcus aureus (MRSA) strain USA300 (NRS384)
Experimental: as §1, §2

[3] = MRSA USA300 (NRS384), 35° C., 22 hours

| Compound | MIC (μg/mL) E. coli [1] | MIC (μg/mL) S. aureus [2, 3] | MIC (μg/mL) S. aureus ([2]; USA300, 22 h) |
| --- | --- | --- | --- |
| C[C@H](NC(=O)[C@H](CCCCN)NC(=O)[C@H](C)NC(=O)[C@@H](NC(=O)[C@H](CCCCN)NS(=O)(=O)c1ccc(-c2ccccc2)cn1)[C@@H](C)O)B1O[C@@H]2C[C@@H]3C[C@@H](C3(C)C)[C@]2(C)O1 [Compound 231] (X31-KTAK-{boroAla((+)-pinanediol)}) | >64 µg/mL | 32 µg/mL (≈ 36.8 µM) |  |
| CCCCc1ccc(-c2ccc(S(=O)(=O)N[C@@H](CCN)C(=O)N[C@H](C(=O)N[C@@H](C)C(=O)N[C@@H](CCCCN)C(=O)N[C@@H](C)B3O[C@@H]4C[C@@H]5C[C@@H](C5(C)C)[C@]4(C)O3)[C@@H](C)O)cn2)cc1 [Compound 232] (X18-[Dab]TAK-{boroAla((+)-pinanediol)}) | 11 µg/mL (≈ 12.3 µM) | 1.5 µg/mL (≈ 1.67 µM) |  |
| CCCCc1ccc(-c2ccc(S(=O)(=O)N[C@@H](CCN)C(=O)N[C@H](C(=O)N[C@@H](C)C(=O)N[C@@H](CCCCN)C(=O)N[C@@H](C)B(O)O)[C@@H](C)O)cn2)cc1 [Compound 233] (X18-[Dab]TAK-boroAla) | 8 µg/mL (≈ 10.5 µM) | 2 µg/mL (≈ 2.62 µM) |  |
| C[C@H](NC(=O)[C@H](CCCCN)NC(=O)[C@H](C)NC(=O)[C@@H](NC(=O)[C@H](CCN)NS(=O)(=O)c1ccc(-c2ccc(Cl)cc2)nc1)[C@@H](C)O)B1O[C@@H]2C[C@@H]3C[C@@H](C3(C)C)[C@]2(C)O1 [Compound 234] (X21-[Dab]TAK-{boroAla((+)-pinanediol)}) | 32 µg/mL (≈ 36.6 µM) | 16 µg/mL (≈ 18.3 µM) |  |
| C[C@H](NC(=O)[C@H](CCCCN)NC(=O)[C@H](C)NC(=O)[C@@H](NC(=O)[C@H](CCN)NS(=O)(=O)c1ccc(-c2ccc(Cl)cc2)nc1)[C@@H](C)O)B(O)O [Compound 235] (X21-[Dab]TAK-boroAla) | 32 µg/mL (≈ 43.2 µM) | 16 µg/mL (≈ 21.6 µM) |  |
| CCCCc1ccc(-c2ccc(S(=O)(=O)N[C@@H](CCCCN)C(=O)N[C@H](C(=O)N[C@@H](C)C(=O)N[C@@H](CCCCN)C(=O)N[C@@H](C)B3O[C@@H]4C[C@@H]5C[C@@H](C5(C)C)[C@]4(C)O3)[C@@H](C)O)cc2)cc1 [Compound 236] (X34-KTAK-{boroAla((+)-pinanediol)}) | 16 µg/mL (≈ 17.3 µM) | 0.5 µg/mL (≈ 0.541 µM) |  |
| CCCCCCCCCCNCCS(=O)(=O)N[C@@H](CCCCN)C(=O)N[C@H](C(=O)N[C@@H](C)C(=O)N[C@@H](CCCCN)C(=O)N[C@@H](C)B1O[C@@H]2C[C@@H]3C[C@@H](C3(C)C)[C@]2(C)O1)[C@@H](C)O [Compound 237] ({Ethanesulfonyl(2-NHDecyl)}-KTAK-{boroAla((+)-pinanediol)}) | 32 µg/mL (≈ 35.6 µM) | 0.35 µg/mL (≈ 0.389 µM) |  |
| CCCCCCCCCCNCCS(=O)(=O)N[C@@H](CCCCN)C(=O)N[C@H](C(=O)N[C@@H](C)C(=O)N[C@@H](CCCCN)C(=O)N[C@@H](C)B(O)O)[C@@H](C)O [Compound 238] ({Ethanesulfonyl(2-NHDecyl)}-KTAK-boroAla) | 32 µg/mL (≈ 41.8 µM) |  | 0.18 µg/mL (≈ 0.235 µM) |
| CCCCCCCCCCNCCS(=O)(=O)N[C@@H](CCN)C(=O)N[C@H](C(=O)N[C@@H](C)C(=O)N[C@@H](CCCCN)C(=O)N[C@@H](C)B1O[C@@H]2C[C@@H]3C[C@@H](C3(C)C)[C@]2(C)O1)[C@@H](C)O [Compound 239] ({Ethanesulfonyl(2-NHDecyl)}-[Dab]TAK-{boroAla((+)-pinanediol)}) | 4 µg/mL (≈ 4.59 µM) | 0.25 µg/mL (≈ 0.287 µM) |  |
| CCCCCCCCCCN(C)CCC(=O)N[C@@H](CCCCN)C(=O)N[C@H](C(=O)N[C@@H](C)C(=O)N[C@@H](CCCCN)C(=O)N[C@@H](C)B1O[C@@H]2C[C@@H]3C[C@@H](C3(C)C)[C@]2(C)O1)[C@@H](C)O [Compound 240] (X19-KTAK-{boroAla((+)-pinanediol)}) | 32 µg/mL (≈ 36.5 µM) | 1.4 µg/mL (≈ 1.6 µM) |  |
| CCCCCCCCCCNC[C@@H](N)C(=O)N[C@H](C(=O)N[C@@H](C)C(=O)N[C@@H](CCCCN)C(=O)N[C@@H](C)B1O[C@@H]2C[C@@H]3C[C@@H](C3(C)C)[C@]2(C)O1)[C@@H](C)O [Compound 241] | 32 µg/mL (≈ 42.7 µM) | 1 µg/mL (≈ 1.33 µM) |  |
| CCCCCCCCCCNCCN[C@@H](CO)C(=O)N[C@H](C(=O)N[C@@H](C)C(=O)N[C@@H](CCCCN)C(=O)N[C@@H](C)B1O[C@@H]2C[C@@H]3C[C@@H](C3(C)C)[C@]2(C)O1)[C@@H](C)O [Compound 242] | 64 µg/mL (≈ 80.6 µM) | 4 µg/mL (≈ 5.04 µM) |  |
| CCCCCCCCCCNCCN[C@@H](CC(N)=O)C(=O)N[C@H](C(=O)N[C@@H](C)C(=O)N[C@@H](CCCCN)C(=O)N[C@@H](C)B(O)O)[C@@H](C)O [Compound 243] | >64 µg/mL |  | 1.4 µg/mL (≈ 2.04 µM) |
| CCCCCCCCCCNCCNCC(=O)N[C@H](C(=O)N[C@@H](C)C(=O)N[C@@H](CCCCN)C(=O)N[C@@H](C)B1O[C@@H]2C[C@@H]3C[C@@H](C3(C)C)[C@]2(C)O1)[C@@H](C)O [Compound 244] | 64 µg/mL (≈ 83.8 µM) | 0.87 µg/mL (≈ 1.14 µM) |  |
| CCCCCCCCCCN(C)CCS(=O)(=O)N[C@@H](CCCCN)C(=O)N[C@H](C(=O)N[C@@H](C)C(=O)N[C@@H](CCCCN)C(=O)N[C@@H](C)B1O[C@@H]2C[C@@H]3C[C@@H](C3(C)C)[C@]2(C)O1)[C@@H](C)O [Compound 245] (X29-KTAK-{boroAla((+)-pinanediol)}) | 32 µg/mL (≈ 35 µM) | 0.35 µg/mL (≈ 0.383 µM) |  |
| COC(=O)C(=O)[C@H](C)NC(=O)[C@H](CCCCN)NC(=O)[C@H](C)NC(=O)[C@@H](NC(=O)[C@H](CCN)NC(=O)c1ccc(-c2ccc(Cl)cc2)cc1)[C@@H](C)O [Compound 246] ({Benzoyl(4-(4-Cl-Ph))}-[Dab]TAK-AlaCOCOOMe) | >64 µg/mL | 2.3 µg/mL (≈ 3.08 µM) |  |
| C[C@H](NC(=O)[C@@H](NC(=O)[C@H](CCN)NC(=O)c1ccc(-c2ccc(Cl)cc2)cc1)[C@@H](C)O)C(=O)N[C@@H](CCCCN)C(=O)N[C@@H](C)C(=O)C(=O)O [Compound 247] ({Benzoyl(4-(4-Cl-Ph))}-[Dab]TAK-X22) | >64 µg/mL | 3.2 µg/mL (≈ 4.37 µM) |  |
| CCCCCCCCCCNCCC(=O)N[C@@H](CCCCN)C(=O)N[C@H](C(=O)N[C@@H](C)C(=O)N[C@@H](CCCCN)C(=O)N[C@@H](C)C(=O)C(=O)OC)[C@@H](C)O [Compound 248] ({Propanoyl(3-decylamino)}-KTAK-AlaCOCOOMe) | >64 µg/mL |  | 1 µg/mL (≈ 1.3 µM) |
| CCCCCCCCCCNCCC(=O)N[C@@H](CCCCN)C(=O)N[C@H](C(=O)N[C@@H](C)C(=O)N[C@@H](CCCCN)C(=O)N[C@@H](C)C(=O)C(=O)O)[C@@H](C)O [Compound 249] ({Propanoyl(3-decylamino)}-KTAK-X22) | >64 µg/mL |  | 0.71 µg/mL (≈ 0.938 µM) |
| CCCCCCCCCCNCCS(=O)(=O)N[C@@H](CCCCN)C(=O)N[C@H](C(=O)N[C@@H](C)C(=O)N[C@@H](CCCCN)C(=O)N[C@@H](C)C(=O)C(=O)OC)[C@@H](C)O [Compound 250] ({Ethanesulfonyl(2-NHDecyl)}-KTAK-AlaCOCOOMe) | >64 µg/mL |  | 0.5 µg/mL (≈ 0.62 µM) |
| CCCCCCCCCCNCCS(=O)(=O)N[C@@H](CCCCN)C(=O)N[C@H](C(=O)N[C@@H](C)C(=O)N[C@@H](CCCCN)C(=O)N[C@@H](C)C(=O)C(=O)O)[C@@H](C)O [Compound 251] ({Ethanesulfonyl(2-NHDecyl)}-KTAK-X22) | >64 µg/mL |  | 0.5 µg/mL (≈ 0.63 µM) |
| CCCCCCCCCCNCCS(=O)(=O)N[C@@H](CCN)C(=O)N[C@H](C(=O)N[C@@H](C)C(=O)N[C@@H](CCCCN)C(=O)N[C@@H](C)C(=O)C(=O)OC)[C@@H](C)O [Compound 252] ({Ethanesulfonyl(2-NHDecyl)}-[Dab]TAK-AlaCOCOOMe) | 64 µg/mL (≈ 82.2 µM) |  | 1 µg/mL (≈ 1.28 µM) |
| CCCCCCCCCCNCCS(=O)(=O)N[C@@H](CCN)C(=O)N[C@H](C(=O)N[C@@H](C)C(=O)N[C@@H](CCCCN)C(=O)N[C@@H](C)C(=O)C(=O)O)[C@@H](C)O [Compound 253] ({Ethanesulfonyl(2-NHDecyl)}-[Dab]TAK-X22) | 64 µg/mL (≈ 83.7 µM) |  | 1 µg/mL (≈ 1.31 µM) |
| CCCCCCCCCCNCCC(=O)N[C@@H](CCCCN)C(=O)N[C@H](C(=O)N[C@@H](C)C(=O)N[C@@H](CCN)C(=O)N[C@@H](C)C(=O)C(=O)O)[C@@H](C)O [Compound 255] ({Propanoyl(3-decylamino)}-KTA[Dab]-X22) | >64 µg/mL |  | 11 µg/mL (≈ 15.1 µM) |
| CCCCCCCCCCNCCC(=O)N[C@@H](CCCCN)C(=O)N[C@H](C(=O)N[C@@H](C)C(=O)N[C@@H](CN)C(=O)N[C@@H](C)C(=O)C(=O)OC)[C@@H](C)O [Compound 256] ({Propanoyl(3-decylamino)}-KTA[Dap]-AlaCOCOOMe) | >64 µg/mL |  | 10 µg/mL (≈ 13.7 µM) |
| CCCCCCCCCCNCCC(=O)N[C@@H](CCCCN)C(=O)N[C@H](C(=O)N[C@@H](C)C(=O)N[C@@H](CN)C(=O)N[C@@H](C)C(=O)C(=O)O)[C@@H](C)O [Compound 257] ({Propanoyl(3-decylamino)}-KTA[Dap]-X22) | >64 µg/mL |  | 11 µg/mL (≈ 15.4 µM) |
